Measurements: patent US20140336233A1 (priority 2011, published 2014)
Where two headings read alike, the source gives them in different places.

What was measured:
Phytophthora infestans [1] = assay type: in vivo, Phytophthora infestans on potato plants (variety Bintje); details: for Efficacy (Abbott formula): Trial 1, potato, spray 24 h before inoculation, notation 5 days after contamination
Phytophthora infestans [2] = assay type: in vivo, Phytophthora infestans on tomato plants (variety Rentita); details: Trial 3, tomato, preventive 24 h, notation 6 days after contamination
Peronospora parasitica = assay: In vivo test against Peronospora parasitica (crucifer downy mildew); design: species or system Peronospora parasitica on cabbage plants (Eminence variety); details: cabbage, spray 24 h before contamination, grading 5 days
Experimental: Spirotetramat is prepared by dilution of the SC100 g/l formulation in water to obtain the desired active material concentration.
Cabbage plants (Eminence variety) in starter cups, sown on a 50/50 peat soil-pozzolana substrate and grown at 18-20° C., are treated at the cotyledon stage by spraying with the aqueous suspension described above at 500, 125 and 31 mg/l.
Plants, used as controls, are treated with an aqueous solution not containing the active material.
After 24 hours, the plants are contaminated by spraying them with an aqueous suspension of Peronospora parasitica spores (37 500 spores per ml). The spores are collected from infected plants.
The contaminated cabbage plants are incubated for 5 days at 20° C., under a humid atmosphere.
(§1) Grading is carried out 5 days after the contamination, in comparison with the control plants.

Plasmopara viticola = assay: In vivo test against Plasmopara viticola (vine downy mildew); details: from 25 to 200 g a.i./ha, spray 24 h before inoculation, grading 5 days (FIG. 4)
Experimental: The treatment is done by spray application in a spray cabinet at 500 L/ha with the aqueous dilutions of spirotetramat SC100 g/l formulation from 25 to 200 g a.i./ha.
The treatment is applied on six vine plants (Cabernet sauvignon variety, 9 weeks old) 24 hours and the plants are placed in a climatic chamber at 18° C. before inoculation.
The inoculation consists on spraying the sporangia suspension calibrated at 100 000 sporangia/ml, at the lower leaf face of each plant 24 h after the treatment and the plants are then placed in a climatic chamber at 18° C. day and night with saturate humidity until the symptoms assessment.
as §1

CCOC(=O)OC1=C(c2cc(C)ccc2C)C(=O)N[C@]12CC[C@@H](OC)CC2 [spirotetramat]
Efficacy (Abbott formula) (Phytophthora infestans [1]; 100 g a.i./ha): 86% | Efficacy (Abbott formula) (Phytophthora infestans [1]; 1000 g a.i./ha): 99% | Efficacy compared with standards (Phytophthora infestans [1]; Trial 2, potato, around 150 g a.i./ha, high disease pressure, preventive 24 h (FIG. 2)): equivalent to the best standard | Efficacy, disease controlled (Phytophthora infestans [2]; 100 g a.i./ha): 95% | Efficacy, disease controlled (Phytophthora infestans [2]; 200 g a.i./ha): 95% | Activity on Peronospora parasitica (Peronospora parasitica; 31 mg/l active ingredient): 100% | Activity on Peronospora parasitica (Peronospora parasitica; 125 mg/l active ingredient): 100% | Activity on Peronospora parasitica (Peronospora parasitica; 500 mg/l active ingredient): 100% | Activity against Plasmopara viticola vine downy mildew (Plasmopara viticola): 100%
